Columns and labels:
[1] = molecular target: T1, mouse galectin-1 (Mus musculus, UniProt P16045); experiment: SPR binding assay, mouse galectin-1
T1 construct: mouse galectin-1 (residues M1-E135); His-tag; made in house; host or cells: E. coli BL21
Description: (§1) For SPR studies, His-tagged proteins were expressed in E. coli strain BL21 (human galectin-1 (residues M1-D135) and mouse galectin-1 (residues M1-E135)) and purified as previously described. SDS-PAGE and mass spectrometry were used to confirm protein purity with all proteins stored at −80 °C until use. Human and mouse proteins for FP were produced as previously described.
(§2) The SPR method previously described for galectin-3 proteins was used here for galectin-1 [10]. Briefly, CM3 sensor chip surfaces (Cytiva, Marlborough, MA, USA) were pre-primed and equilibrated in immobilization buffer (10 mM HEPES, 150 mM NaCl (pH 7.4)) using an Amine Coupling Kit (Cytiva, Marlborough, MA, USA) prior to the immobilization of protein (injected at 10 µg/mL in PBS at pH 6.0). […] Chips surfaces were blocked with ethanolamine HCl (pH 8.5) for 420 s upon reaching the immobilization required. Then, EDC/NHS and ethanolamine were used to treat blank surfaces that were protein-free. Running buffer (RB) was used to dilute compounds (10 mM HEPES, 150 mM NaCl, 1 mM DTT, 0.05% Tween 20, 5% DMSO (pH 7.4)), pre-filtered, degassed, and then injected for 1 min at a flow rate of 30 μL/min. […] Following each cycle, the chip surface was auto-regenerated and aided by fast compound off-rates, and a further wash set was completed in RB. […]

[2] = molecular target: T2, human galectin-1 (Homo sapiens, UniProt P09382); experiment: SPR binding assay, human galectin-1
T2 construct: human galectin-1 (residues M1-D135); His-tag; made in house; host or cells: E. coli BL21
T2 sequence (P09382 whole entry, the tested form may be a part): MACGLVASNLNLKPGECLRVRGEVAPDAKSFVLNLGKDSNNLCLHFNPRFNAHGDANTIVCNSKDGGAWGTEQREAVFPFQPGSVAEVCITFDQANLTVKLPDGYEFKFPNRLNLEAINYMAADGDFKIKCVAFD
Description: as §1, §2

[3] = molecular target: T2, human galectin-1; experiment: Fluorescence polarization (FP) binding assay, galectin-1; details: human vs mouse galectin-1
Description: as §1

T1 sequence (P16045 whole entry, the tested form may be a part): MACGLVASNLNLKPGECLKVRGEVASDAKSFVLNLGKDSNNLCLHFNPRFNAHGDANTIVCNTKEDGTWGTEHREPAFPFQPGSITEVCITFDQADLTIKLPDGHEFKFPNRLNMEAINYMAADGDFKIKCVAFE

Structure (SMILES)	Kd ([1]; koff/kon, 1:1 Langmuir model, 25 °C, read-out: kinetic KD in SPR)	Fold KD Differences Mouse Gal-1 FP vs. SPR ([1]; FP vs SPR assay format)	Fold KD Differences SPR Human vs. Mouse Gal-1 ([2]; SPR assay, human vs mouse galectin-1)	Fold KD Differences Human Gal-1 FP vs. SPR ([2]; human galectin-1, FP vs SPR assay format)	Fold KD Differences FP Human vs. Mouse Gal-1 [3]
OC[C@H]1O[C@@H](S[C@@H]2O[C@H](CO)[C@H](O)[C@H](n3cc(-c4cccc(F)c4)nn3)[C@H]2O)[C@H](O)[C@@H](n2cc(-c3cccc(F)c3)nn2)[C@H]1O [Compound 1, GB0139]	131 nM	–	–	–	–
OC[C@H]1O[C@H](Sc2cc(Cl)c(F)c(Cl)c2)[C@H](O)[C@@H](n2cc(-c3nccs3)nn2)[C@H]1O [Compound 4, GB1490]	–	1.6 fold	0.6 fold	1.8 fold	0.6 fold

Source: paper PMC11203799, “Determining the Affinity and Kinetics of Small Molecule Inhibitors of Galectin-1 Using Surface Plasmon Resonance” (International Journal of Molecular Sciences, 2024)
